Data reported in publication PMC4588179, “Antifungal Activity of 14-Helical β-Peptides against Planktonic Cells and Biofilms of Candida Species” (Pharmaceuticals, 2015).
Values after ≈ are worked out from the molar mass of the structure shown.

Tests used:
[1] = RP-HPLC retention time as measure of β-peptide hydrophobicity; format: physicochemical; settings: chromatographic, analytical RP-HPLC, C18 (Waters X-bridge, 4.6 mm × 250 mm), gradient 20%–80% CH3CN in water with 0.1% TFA over 5–35 min, 1 mL/minute, 0.5 to 1 mg/mL, 50 µL injected; mean ± standard deviation of triplicate measurements
Description: β-peptides were produced by microwave-assisted Fmoc synthesis at 20−40 μmol scales and purified by RP-HPLC using a C18 column. MALDI mass spectrometry was used to validate the mass of each peptide as described previously. Retention times determined by C18 RP-HPLC were used as a measure of the relative hydrophobicity of the β-peptides (Table 1). This approach has been used previously by our group and others to assess the relative hydrophobicity of different peptide structures. Preliminary antifungal activity and mammalian toxicity evaluation were reported previously for β-peptides 1–16 as planktonic MIC against C. albicans and percent hemolysis at the MIC, respectively.
Hydrophobicity of 14-helical β-peptides was characterized by measuring retention times with an analytical RP-HPLC using a C18 column (Waters, X-bridge, column dimensions 4.6 mm × 250 mm, Milford, MA, USA). The β-peptide solutions (0.5 to 1 mg/mL, 50 µL) were injected into the HPLC at a flow rate of 1 mL/minute. Retention time was characterized in triplicate with a gradient of 20%–80% CH3CN in water containing 0.1% TFA over 5–35 min.

C. glabrata 5376 = experiment: Planktonic antifungal susceptibility (modified CLSI, XTT end point); format: cell-based, Candida glabrata; settings: 10^3 cells/mL, RPMI, 35 °C, 48 h, XTT (A490), <10% metabolic activity, at least two independent days, three replicates each
Method: (§1) C. albicans strains SC5314 and ATCC 90028 were purchased from ATCC. C. albicans K1, C. glabrata 5376, C. parapsilosis 5986 and C. tropicalis 98-234 are clinical isolates from invasive candidiasis and were generously donated by the Andes group (University of Wisconsin-Madison). K1 is fluconazole resistant. All strains were stored as a 50% glycerol stock at −80 °C and grown in a liquid YPD media. For planktonic susceptibility testing, cells were grown on agar plates at 30 °C for 24 h and 2–3 colonies were used for the cell inoculum. For spheroplast formation and biofilm susceptibility testing assays, cells were grown overnight in YPD at 30 °C. RPMI (with L-glutamine and phenol red buffered with 3-(N-morpholino) propanesulfonic acid and adjusted to pH 7.0) was the media used for all susceptibility tests. XTT solution for assessing metabolic activity was prepared at 0.5 g/L in PBS with 3 μM menadione in acetone and pH adjusted to 7.4.
(§2) The antifungal activities of the β-peptides against C. albicans, C. glabrata, C. parapsilosis, C. tropicalis cells were assayed in accordance to the guidelines for planktonic susceptibility testing provided by the Clinical and Laboratory Standards Institute, but with a modification to include a quantitative XTT cell metabolic activity end-point. […] After 48 h, the MICs were recorded visually as the first well that […] and by using an XTT metabolic assay. […]

C. parapsilosis 5986 = experiment: as above; format: cell-based, Candida parapsilosis; settings: 10^3 cells/mL, RPMI, 35 °C, 48 h, XTT (A490), <10% metabolic activity, at least two independent days, three replicates each
Method: as §1, §2

C. tropicalis 98-234 = experiment: as above; format: cell-based, Candida tropicalis; settings: 10^3 cells/mL, RPMI, 35 °C, 48 h, XTT (A490), <10% metabolic activity, at least two independent days, three replicates each
Method: as §1, §2

[2] = tested on: human red blood cells (hRBCs); experiment: Hemolysis of human red blood cells; format: cell-based; settings: hRBCs, 2-fold dilutions in tris-buffered saline, an hour at 37 °C, absorbance 405 nm, relative to positive lysis control; average ± standard deviation of three independent experiments of duplicates each
Method: Table S1. Hemolysis of β-peptide 1-16, concentration of β-peptid e needed for 50% lysis of human red blood cells (hRBCs)
Peptide # Peptide Concentration at 50% Hemolysis a (HC50, µg/mL) […]
a Hemolysis assays were perfor med as previously indicated in Lee, M.R. et al., ACS Chem. Biol. (2014). Briefly, equal volumes of 2-fold dilutions of β-peptides in tris-buffered saline (TBS) were incubated with hRBCs for an hour at 37 °C. Supernatants were transferred to a new plate and absorbance was measured at 405 nm.
% hemolysis was calculated relative to positive lysis control and the concentration of peptide needed for 50% hemolysis was recorded as HC50 for that peptide. Values reported are average measurements from three independent experiments of duplicates each and the error denoted is the standard deviation. Concentration dependent hemolysis graphs can be found in Lee, M.R. et al., ACS Chem. Biol. (2014).

CC(C)[C@@H](CC(=O)N[C@@H](CCCCN)CC(N)=O)NC(=O)[C@H]1CCCC[C@@H]1NC(=O)C[C@H](CCCCN)NC(=O)C[C@@H](NC(=O)[C@H]1CCCC[C@@H]1NC(=O)C[C@H](CCCCN)NC(=O)C[C@@H](NC(=O)[C@H]1CCCC[C@@H]1N)C(C)C)C(C)C [Peptide 4]
Hydrophobicity (HPLC Retention Time, min) [1]: 24.5 ± 0.2 min
MIC, C. glabrata (C. glabrata 5376): 32 µg/mL (≈ 27.6 µM)
MIC, C. parapsilosis (C. parapsilosis 5986): 16 µg/mL (≈ 13.8 µM)
MIC, C. tropicalis (C. tropicalis 98-234): 4 µg/mL (≈ 3.45 µM)
Peptide Concentration at 50% Hemolysis (HC50) [2]: 161 ± 40 µg/mL
